For one assay, the system named is SLC26A2. As to conditions: 25 mM Cl- added to the medium. As to the method: (§1) Oocytes expressing SLC26A2, SLC26A7, or SLC26A9, or control oocytes (H2O) were incubated in medium containing ^35SO4^2− for one hour. (−), Cl^−-free medium; (+), 25 mM Cl^− added to the medium; hr, hour.
(§2) Full-length mouse SLC26A7 and SLC26A9 cDNAs were cloned into the Xenopus expression vector pGEMHE (Liman et al., 1992). SLC26A6 and SLC26A2 constructs were also prepared for use as controls in transport assays (Example 7). Expression constructs were linearized, and cRNA was transcribed in vitro using T7 RNA polymerase and a […] MMACHINE® transcription kit (Ambion, Inc. of Austin, Tex., United States of America). Defolliculated oocytes were injected with 25 nl to 50 nl of water or with a solution containing cRNA at a concentration of 0.5 μg/μl (12.5 ng to 25 ng per oocyte) using a Nanoliter-2000 injector (WPI Instruments of Sarasota, Fla., United States of America). Oocytes were incubated at 17° C. in 50% Leibovitz's L-15 media supplemented with penicillin/streptomycin (1000 units/ml) and glutamine for 2-3 days for uptake assays.
(§3) For sulphate uptake assays, oocytes were pre-incubated for 20 minutes in chloride-free uptake medium (100 mM NMDG gluconate, 2 mM potassium gluconate, 1 mM calcium gluconate, 1 mM magnesium gluconate, 10 mM HEPES-Tris, pH 6.0 or pH 7.5 as indicated), followed by a 60-minute period for uptake in the same medium supplemented with 1 mM K2^35SO4 (40 μCi/ml). The cells were then washed three times in uptake buffer with 5 mM cold K2SO4 to remove tracer activity in the extracellular fluid. The oocytes were dissolved individually in 10% SDS, and tracer activity was determined by scintillation counting. Uptake of chloride, formate, and oxalate was assayed using the same chloride-free uptake solutions, substituting 8.3 mM ^36Cl, 500 μM [^14C]oxalate, or 50 μM [^14C]formate for labeled sulphate. Each uptake experiment included 12-18 oocytes in each experimental group, and results were reported as means±SEM. […]

Assay [1] deals with T1, SLC26A7 (Mus musculus, UniProt Q8R2Z3, F233L/S639T).
T1 sequence (Q8R2Z3 1-656 F233L/S639T): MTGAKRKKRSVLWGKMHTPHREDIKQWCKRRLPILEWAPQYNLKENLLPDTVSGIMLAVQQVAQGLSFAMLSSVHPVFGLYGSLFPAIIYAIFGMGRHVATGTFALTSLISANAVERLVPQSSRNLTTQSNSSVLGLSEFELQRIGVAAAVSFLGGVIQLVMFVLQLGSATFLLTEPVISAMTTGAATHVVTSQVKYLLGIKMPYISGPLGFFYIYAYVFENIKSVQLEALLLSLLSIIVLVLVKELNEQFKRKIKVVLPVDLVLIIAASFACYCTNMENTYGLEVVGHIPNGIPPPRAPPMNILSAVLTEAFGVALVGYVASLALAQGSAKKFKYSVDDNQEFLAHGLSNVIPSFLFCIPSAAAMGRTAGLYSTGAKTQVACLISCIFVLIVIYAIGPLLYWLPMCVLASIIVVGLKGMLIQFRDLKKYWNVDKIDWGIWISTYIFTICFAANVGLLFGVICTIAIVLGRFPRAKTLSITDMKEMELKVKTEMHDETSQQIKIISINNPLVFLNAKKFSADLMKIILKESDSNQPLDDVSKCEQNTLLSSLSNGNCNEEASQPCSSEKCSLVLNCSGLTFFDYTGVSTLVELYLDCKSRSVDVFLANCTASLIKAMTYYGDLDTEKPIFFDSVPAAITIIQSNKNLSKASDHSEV
As to conditions: 25 mM Cl- added to the medium. As to the method:
as §1, §2, §3

Assay [2] has as its target T2, SLC26A9 (Mus musculus, UniProt Q8BU91, G332D/L540F).
T2 sequence (Q8BU91 1-790 G332D/L540F): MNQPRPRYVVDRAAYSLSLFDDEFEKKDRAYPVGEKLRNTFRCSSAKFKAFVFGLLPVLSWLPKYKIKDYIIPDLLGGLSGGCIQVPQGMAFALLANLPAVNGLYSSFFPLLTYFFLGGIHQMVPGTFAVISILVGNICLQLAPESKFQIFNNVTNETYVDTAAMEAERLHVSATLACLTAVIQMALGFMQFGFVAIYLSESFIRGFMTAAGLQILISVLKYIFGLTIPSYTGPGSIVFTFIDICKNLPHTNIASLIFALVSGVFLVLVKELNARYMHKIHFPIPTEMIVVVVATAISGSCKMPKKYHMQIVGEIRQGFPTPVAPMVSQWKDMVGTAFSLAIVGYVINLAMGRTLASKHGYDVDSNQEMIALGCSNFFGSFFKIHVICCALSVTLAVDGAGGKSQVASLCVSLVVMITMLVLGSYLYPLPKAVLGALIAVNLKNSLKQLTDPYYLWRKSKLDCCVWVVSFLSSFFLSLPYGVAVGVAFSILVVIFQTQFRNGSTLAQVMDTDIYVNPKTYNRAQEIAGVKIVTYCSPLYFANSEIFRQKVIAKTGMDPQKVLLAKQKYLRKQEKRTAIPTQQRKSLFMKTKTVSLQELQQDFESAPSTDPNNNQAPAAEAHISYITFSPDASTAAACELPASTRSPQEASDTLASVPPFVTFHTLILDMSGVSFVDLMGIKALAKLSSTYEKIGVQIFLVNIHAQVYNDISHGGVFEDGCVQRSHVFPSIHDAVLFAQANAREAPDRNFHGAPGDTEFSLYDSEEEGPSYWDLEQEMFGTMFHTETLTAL
As to conditions: 25 mM Cl- added to the medium. Here is the method:
as §1, §2, §3

Assay [3] has as its target T1, SLC26A7. In words: 36Cl- uptake in SLC26A7-injected Xenopus oocytes. The assay is classed as cell-based. As to conditions: 1 mM DIDS, pH 6.0, isotonic and hypotonic conditions. More on the design: Full-length mouse SLC26A7 and SLC26A9 cDNAs were cloned into the Xenopus expression vector pGEMHE; expressed in transfected cells; host or cells: Xenopus laevis oocytes injected with cRNA transcribed in vitro from pGEMHE. As to the method: FIG. 3A is a bar graph that depicts ^36Cl^− uptake (pmol/oocyte/h) as a function of extracellular osmolality and pH in SLC26A7-injected oocytes (A7) and water injected control oocytes (H2O). Oocytes were incubated during the pre-uptake period and uptake period at varying osmolaltiy at either pH 7.4 (open bars), pH 6.0 (black bars), or at pH 6.0 in the presence of 1 mM DIDS (grey bars). ISO, isotonic osmolality, 210 mOsm/kg; HYPO, hypotonic osmolality, 120 mOsm/kg; HYPER, hypertonic osmolality, 300 mOsm/kg; h, hour.

The target in assay [4] is T2, SLC26A9. The experiment in a line: 36Cl- uptake (Cl-Cl exchange) in SLC26A9-injected Xenopus oocytes. It is filed as cell-based. On the set-up: Full-length mouse SLC26A7 and SLC26A9 cDNAs were cloned into the Xenopus expression vector pGEMHE; expressed in transfected cells; host or cells: Xenopus laevis oocytes injected with cRNA transcribed in vitro from pGEMHE. As to conditions: 1 mM DIDS, pH 6.0. Here is the method:
FIG. 3B is a bar graph that depicts DIDS inhibition of ^36Cl^− uptake (pmol/oocyte/h) in SLC26A9injected oocytes (Slc26a9) and water-injected control oocytes (H2O). Oocytes were incubated during the pre-uptake period and uptake period at either pH 7.4 (open bars), pH 6.0 (black bars), or at pH 6.0 in the presence of 1 mM DIDS (grey bars). H, hour.
FIG. 3C is a bar graph that depicts a lack of cis-inhibition of Cl^−-Cl^− exchange in oocytes expressing SLC26A9 or in control oocytes (H2O). Oocytes were incubated in medium containing ^36Cl^− for one hour in the absence (control) or presence of 25 mM of the indicated anions.

For the compound `Cl` [Cl^−, chloride], the “effect of extracellular Cl- on 35SO4 2- uptake by SLC26A2” value with SLC26A2 is “significantly inhibited”. Further, the “effect of extracellular Cl- on 35SO4 2- uptake in SLC26A7-injected oocytes” value on SLC26A7 [1] is recorded as “without activating”. Besides, at SLC26A9 [2], the “effect of extracellular Cl- on 35SO4 2- uptake in SLC26A9-injected oocytes” value is on record as “without activating”.
As for `O=S(=O)(O)c1cc(N=C=S)ccc1C=Cc1ccc(N=C=S)cc1S(=O)(=O)O` [DIDS, 4,4′-diisothiocyanatostilbene-2,2′-disulfonic acid], the “DIDS sensitivity of SLC26A7 36Cl- uptake activity” value at SLC26A7 [3] is “modestly DIDS-sensitive”. In addition, at SLC26A9 [4], the “DIDS sensitivity of Cl-Cl exchange mediated by SLC26A9” value is “moderately sensitive”.

(Values after patent US20050176945A1, “Cloning and characterization of slc26a7 and slc26a9 anion exchangers” (priority 2002, published 2005).)
